Test results published in publication PMC10942258 (PLOS Biology, 2024).

Biological target: VP35 (EBOV VP35) (Ebola virus - Mayinga, Zaire, 1976, UniProt Q05127)
Assay: biochemical
Type: binding

Sequence of VP35 (EBOV VP35) (Q05127 whole entry, looked up): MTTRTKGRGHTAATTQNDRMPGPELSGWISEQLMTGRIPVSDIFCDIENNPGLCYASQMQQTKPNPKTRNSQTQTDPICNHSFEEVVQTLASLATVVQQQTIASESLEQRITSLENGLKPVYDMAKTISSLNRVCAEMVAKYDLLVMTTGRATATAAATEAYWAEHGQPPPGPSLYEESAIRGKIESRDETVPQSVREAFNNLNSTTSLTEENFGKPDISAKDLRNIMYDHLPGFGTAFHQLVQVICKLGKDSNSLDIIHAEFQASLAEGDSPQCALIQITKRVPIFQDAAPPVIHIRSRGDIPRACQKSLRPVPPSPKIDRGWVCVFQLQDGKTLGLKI

Cc1oc(C)c(S(N)(=O)=O)c1C(=O)O [SFC, 2,5-Dimethyl-4-sulfamoyl furan-3-carboxylic acid]
Kd: ~375 nM
